Measured values reported in the supplement of paper PMC10307832.

Tests used:
Test in all cases: relative viability (nuclei count vs DMSO), 5 days (fraction); higher = more cells survive
Adavosertib = compound: C=CCn1c(=O)c2cnc(Nc3ccc(N4CCN(C)CC4)cc3)nc2n1-c1cccc(C(C)(C)O)n1 [Adavosertib]
Outline: (§1)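 Only plates meeting two conditions passed: control CV below 25% and at least one doubling. Lung cancer cell lines, kept overnight at 37 °C in 1536-well plates, were pinned with five library-drug doses (not always all listed) √10 apart on vehicle-anchored plates and grown 5 days without medium change. A one-step fix, permeabilisation and Hoechst stain preceded 4× imaging and MetaXpress nuclear counting. Viability equals treated-well nuclei divided by vehicle-well nuclei, as the median over plates.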

Nelarabine = compound: COc1nc(N)nc2c1ncn2[C@@H]1O[C@H](CO)[C@@H](O)[C@@H]1O [Nelarabine]
Outline: as §1

Adavosertib + Trametinib = compound: C=CCn1c(=O)c2cnc(Nc3ccc(N4CCN(C)CC4)cc3)nc2n1-c1cccc(C(C)(C)O)n1 [Adavosertib] + CC(=O)Nc1cccc(-n2c(=O)n(C3CC3)c(=O)c3c(Nc4ccc(I)cc4F)n(C)c(=O)c(C)c32)c1 [Trametinib] (partner 0.02 µM)
Outline: (§2)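 The day after seeding in 1536-well plates, lung cancer cell lines were treated by pin tool with a single drug, or with a fixed anchor-drug dose together with five library-drug doses (not always all listed) in √10 steps. After 5 days, a combined fix-and-stain solution (final 0.05% Triton X-100, 1% formaldehyde, 1 ug/ml Hoechst) was added. Nuclei counted on 4× images gave relative viability as treated counts over vehicle counts, reported as the median of duplicate plates.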

Nelarabine + Navitoclax = compound: COc1nc(N)nc2c1ncn2[C@@H]1O[C@H](CO)[C@@H](O)[C@@H]1O [Nelarabine] + CC1(C)CCC(c2ccc(Cl)cc2)=C(CN2CCN(c3ccc(C(=O)NS(=O)(=O)c4ccc(N[C@H](CCN5CCOCC5)CSc5ccccc5)c(S(=O)(=O)C(F)(F)F)c4)cc3)CC2)C1 [Navitoclax] (partner 0.5 µM)
Outline: as §2

Cell Line	relative viability (Adavosertib; 0.01 µM)	relative viability (Adavosertib; 0.03162 µM)	relative viability (Adavosertib; 0.1 µM)	relative viability (Adavosertib; 0.3162 µM)	relative viability (Nelarabine; 0.01 µM)	relative viability (Nelarabine; 0.03162 µM)	relative viability (Nelarabine; 0.1 µM)	relative viability (Nelarabine; 0.3162 µM)	relative viability (Nelarabine; 1 µM)	relative viability (Adavosertib + Trametinib; first compound 0.01 µM)	relative viability (Adavosertib + Trametinib; first compound 0.03162 µM)	relative viability (Adavosertib + Trametinib; first compound 0.1 µM)	relative viability (Adavosertib + Trametinib; first compound 0.3162 µM)	relative viability (Nelarabine + Navitoclax; first compound 0.01 µM)	relative viability (Nelarabine + Navitoclax; first compound 0.03162 µM)	relative viability (Nelarabine + Navitoclax; first compound 0.1 µM)	relative viability (Nelarabine + Navitoclax; first compound 0.3162 µM)	relative viability (Nelarabine + Navitoclax; first compound 1 µM)
SW 900	0.738	1.07	0.885	0.49	0.998	0.897	1.06	1	0.896	0.682	0.892	0.957	0.696	–	–	–	–	–
PC-3 [JPC-3]	1.04	1.04	1.04	1.05	1.08	1.09	1.14	1.06	1.06	–	0.667	0.761	0.746	1.04	0.732	0.748	0.913	0.926
EKVX	0.975	0.967	0.955	1.1	1.09	0.898	0.857	1.09	0.968	0.327	0.34	0.377	0.401	1.14	0.897	0.856	1.08	0.982
NCI-H322M	0.85	0.953	0.845	0.61	0.963	0.896	0.884	0.937	0.923	0.48	0.489	0.471	0.389	1.39	1.35	1.3	1.27	1.17
EBC-1	0.974	1.02	1.07	0.971	1.19	1.14	1.05	1.01	0.975	–	–	–	–	0.403	0.261	0.375	0.432	0.381
NCI-H650	0.896	0.972	1.03	0.859	0.942	0.996	0.962	1	1.04	0.935	1.01	0.942	1.07	–	–	–	–	–
NCI-H1563	0.954	0.894	0.917	1.01	1.04	1.03	0.951	0.985	0.986	–	–	–	–	–	–	–	–	–
IA-LM	0.927	0.953	1	1.03	1.1	1.12	1.06	1.07	0.971	–	–	–	–	1	0.626	0.774	0.754	0.807
NCI-H1299	1.03	0.999	1.04	0.789	1.07	1.07	1.04	1.07	1.03	–	–	–	–	1.09	1.06	1.1	1.07	1.08
NCI-H1703	1.29	0.892	1.08	0.249	1.3	1	1.06	1.06	0.953	–	–	–	–	1.28	0.936	1.24	1.18	1.18
Calu-6	1.03	1.03	1.05	0.6	1.19	1.13	1.04	1.1	1.1	–	–	–	–	1.17	–	0.892	0.851	0.909
NCI-H522	1.04	0.975	1.05	1.06	1.01	0.949	1.09	0.843	1.05	0.797	0.75	0.736	0.653	–	–	–	–	–
NCI-H661	0.996	1.03	1.08	0.769	1.07	1.14	1	1.04	0.999	0.686	0.621	0.68	0.486	–	–	–	–	–
LCLC-103H	1.03	0.981	0.954	0.985	1.15	1.01	1.03	1.03	1.07	0.641	0.688	0.668	0.7	–	–	–	–	–
NCI-H1623	0.895	0.915	0.949	1.01	0.869	1.12	0.965	0.979	0.931	–	–	–	–	–	–	–	–	–
NCI-H358	0.838	0.785	0.752	0.467	1.1	0.928	0.804	1.06	1.05	0.132	0.124	0.124	0.124	–	–	–	–	–
NCI-H2342	1.01	1.02	0.986	0.96	1.07	0.833	1.01	0.969	0.99	0.922	0.829	0.776	0.848	–	–	–	–	–
A549	0.933	0.984	1	1.01	1.19	1.04	1.02	1	0.911	–	–	–	–	1.56	1.29	1.24	1.17	1.18
ABC-1	0.885	0.893	0.948	0.96	1.1	0.911	0.988	1.11	0.943	–	–	–	–	–	–	–	–	–
